Experimental data as given in US6544952B1, “Synthesis of glycoconjugates of the globo-H epitope and uses thereof” (Sloan-Kettering Institute for Cancer Research, priority 1994, dated 2003).
Where two headings read alike, the source gives them in different places.

Experiments:
MBr1 monoclonal antibody = assay: Immune TLC with monoclonal antibody MBr1; type: binding, murine; conditions: comparable staining with 1/10 the amount of antigen
[1] = tested on: MAb MBr1 with breast cancer cell lines such as MCF-7; assay: flow cytometry inhibition assay of mAb MBr1 reactivity with MCF-7; type: cell-based; conditions: for inhibition of reactivity of MAb MBr1 with breast cancer cell lines such as MCF-7: 8 μg/ml of preparation
Description: By Thin Layer Chromatography (TLC) the 2 preparations migrate as similar single bands. […] The high level of reactivity of the β structure with mAb MBr1 was confirmed using flow cytometry inhibition assays. Reactivity of MAb MBr1 with breast cancer cell lines such as MCF-7 was 98% inhibited by 8 μg/ml of the β linkage preparation but was only 6% inhibited by 8 μg of the α-linkage preparation.
(§1) The breast tumor glycolipid associated antigen 2 (See FIG. 24) isolated by Hakomori and co-workers from MCF-7 cells, and termed globe H, constituted a promising possibility for exploration (Kannagi, R., et al., J. Biol. Chem. 1983, 258, 8934; Bremer, G., et al., J. Biol. Chem. 1984 259, 14773). Early studies in this area were facilitated by the immunocharacterization of the antigen by the murine monoclonal antibody Mbr1 (Menard, S., et al., Cancer Res. 1983, 43, 1295). Previously, we had described the total synthesis of the hexacyclic globo H glycal 1 (See FIG. 24) by the method of glycal assembly (See FIG. 24) (Bilodeau, M.T., et al., J. Am. Chem. Soc. 1995 117, 7840; Park, et al., J. Am. Chem. Soc. 1996, 118, 11488). This system was carried forward to reach antigen 2 (See FIG. 24), whose structure assignment was verified by unambiguous spectroscopic corroboration through this synthesis.

mAb MBr1 = assay: binding to mAb MBr1, mapping of structural requirements; parameters: species or system murine
From the text: as §1
We then built upon the logic of our synthesis to prepare congeners of the compound and to use them to map the structural requirements for binding to the mAb MBr1.

[2] = tested on: antisera binding to globo H antigen 2; assay: inhibition of binding of anti-globo H antisera to globo H antigen 2 (ELISA); parameters: species or system mice
From the text: As an indication of specificity, we conducted assays with compounds 2-8 of FIGS. 24 and 25 to determine their ability to inhibit the binding of antisera to the fully synthetic globo H antigen 2 (FIG. 28). […] Partial inhibition resulted from truncated globo H compounds, but not with unrelated compounds such as ganglioside GD3. These findings are consistent with a polyclonal serological response in which different antibodies react with different portions of compound 2.

[3] = tested on: mice (antibodies against the immunizing antigen); assay: immunization of mice with Le^y conjugates 17c and 32c, ELISA antibody titer; type: in vivo; conditions: one set of 5 mice; graphs J-L
Description: The stage was set for immunizations with conjugates 17c and 32c. The immunizations with the BSA conjugate 17c were carried out on two sets of 5 mice and the immunizations with the ceramide conjugate 32c were carried out on one set of 5 mice. An enzyme-linked immunosorbant assay (ELISA) was used to measure antibody titer (FIG. 20(b)). Three different ELISA experiments were performed to measure antibody titer. The first is the measure of total antibody response (aIg), that is the summation of IgM and IgG antibodies, as shown in graphs A, D, G. and J of FIGS. 21(a) and (b). The other two assays measure IgM and IgG antibodies separately as indicated in the graphs. The ELISA assay (see FIG. 20(b)) involves the immobilization of a test antigen in a microtiter well. The serum to be tested for antibodies is placed in the well. Any antibodies in the serum recognizing the test antigen will remain in the well after thorough washing. Next, modified anti-mouse Ig, IgM, or IgG antibodies are placed in the well. […] The presence of the alkaline phosphatase-linked secondary antibody causes cleavage of the phosphate, yielding the yellow p-nitrophenolate anion, which can be quantified using spectrophotometric techniques.
Graphs A, B, and C in FIG. 21(a) show the measured titers of total antibody Ig (A), IgM (B), and IgG (C) type antibodies in five mice immunized with conjugate 17c. […]

| Molecule | reactivity with MBr1 monoclonal antibody, β-form relative to the other form (MBr1 monoclonal antibody) | inhibition of MBr1 binding to MCF-7 cells [1] | inhibition of reactivity of MAb MBr1 with breast cancer cell lines such as MCF-7 [1] | binding to mAb MBr1 (mAb MBr1) | binding to mAb MBr1 (mAb MBr1; listed as 1b) | inhibition of binding of antisera to globo H antigen 2 [2] | IgG response [3] | IgM response [3] |
| --- | --- | --- | --- | --- | --- | --- | --- | --- |
| Fuca1→GalB1→3GalNAcB1→3Galα1→4GlB1→4GcB1→1Cer [compound 2] | 10 times | inhibited its binding to MCF-7 cells | 98% | bind to the murine monoclonal antibody (mAb) MBr1 | bind to the monoclonal antibody MBr1 | complete inhibition | – | – |
| Fucα1→2GalB1→3GalNAcα1→3Galα1→4GalB1→1Cer [α-linkage preparation] | – | – | 6% | – | – | – | – | – |
| CCCCCCCCCCCCCC=C[C@@H](O)[C@@H](CO[C@@H]1O[C@H](CO)[C@@H](O[C@@H]2O[C@H](CO)[C@H](O)[C@H](O)[C@H]2O[C@@H]2O[C@@H](C)[C@@H](O)[C@@H](O)[C@@H]2O)[C@H](O[C@@H]2O[C@@H](C)[C@@H](O)[C@@H](O)[C@@H]2O)[C@H]1NC(C)=O)NC(=O)CCCCCCCCCCCCCCC [32c, (3R)-Hydroxy-(2R)-hexadecanamido-4-octadecenyl-[[[(6-deoxy-a-L-galactopyranosyl)-(1→2)]-(b-D-galactopyranosyl)-(1→4)]-(6-deoxy-a-L-galactopyranosyl)-(1→3)]-2-deoxy-2-acetamido-b-D-glucopyranose] | – | – | – | – | – | – | No mice showed any IgG response | Most mice showed only a weak IgM response |
